# Test results from patent publication US5561111A, “Stable glutamine derivatives for oral and intravenous rehydration and nutrition therapy” (The University of Virginia Patent Foundation, priority 1994, dated 1996).
# Peptide text beside a SMILES is read from it.
# System: rabbit ileal mucosa
# Experiment: Intestinal sodium cotransport in rabbit ileal mucosa mounted in Ussing chambers
# Procedure: To study intestinal sodium cotransport using the compounds of the present invention, Ala-Glu and Ala-Gln were tested according to the method of Lima et al, Brazilian J. Med Biol. Res., 25:637-640 (1992) for measuring intestinal sodium cotransport in rabbit ileal mucosa mounted in Ussing chambers. […] As shown the dose response increases dramatically in a non-linear fashion. […] The pD2 value is related to the ED50 in accordance with the following formula: -log ED50 =pD2.
structure (smiles),measurement,value
"C[C@H](N)C(=O)N[C@@H](CCC(N)=O)C(=O)O [Ala-Gln, alanyl-glutamine] (H-Ala-Gln-OH)",maximum increase (Emax) in Isc,150 μA/cm^2
